Laboratory results as given in paper PMC6916019, “In vitro anti-malarial efficacy of chalcones: cytotoxicity profile, mechanism of action and their effect on erythrocytes” (Malaria Journal, 2019).
≈ marks a conversion by molar mass, not a printed value. Structures can show the parent of a compound that is named as a salt. Where two headings read alike, the source gives them in different places.

Key:
[1] = system: P. falciparum chloroquine resistant strain (RKL-9); assay: WHO Mark III schizont maturation inhibition assay, chloroquine resistant strain; type: cell-based, Plasmodium falciparum; conditions: for IC50: read-out: P. falciparum Chloroquine^R Strain (RKL-9) IC50; for IC90: read-out: P. falciparum Chloroquine^R Strain (RKL-9) IC90; for Selective index (SI) P.falciparum chloroquine^R (RKL-9): SI = CC50 (HeLa)/IC50 (RKL-9); for Resistance Index (RI) IC50 (RKL-9)/IC50 (MRC-2): ratio of IC50 resistant / sensitive strain
Protocol: (§1) These strains were perpetuated in vitro in continuous culture according to the method of Trager and Jensen with slight modifications. Briefly, both sensitive and resistant strains of P. falciparum were maintained in A+ erythrocytes in RPMI-1640 medium (having glutamine, but without any sodium bicarbonate) comprising 1.00 g of dextrose, 5.94 g of HEPES buffer, 40.00 mg of gentamycin. Additionally supplemented with 5% sodium bicarbonate and 10% (v/v) inactivated human AB+ serum then incubated in gas mixture of 5% CO2, 5% O2 and 90% N2 at 37 °C. Parasitized erythrocytes at initial 5% haematocrit were suspended in above mentioned culture medium and parasitaemia was regularly checked to maintain level between 2 and 4% with further sub-culturing for parasitaemia beyond 5%. Growth and multiplication of parasite was monitored by microscopy using Giemsa-stained slides.
(§2) To obtain ring stages of the parasite, the cultures were synchronized using D-sorbitol. The cultures, with majority of ring stages, were treated with equal volume of aqueous 5% D-sorbitol for 5 min and then after centrifugation pellet were suspended in complete medium and fresh erythrocytes synchronized culture with 1% parasitaemia and 5% haematocrit were used for compound concentration response assay.
(§3) The concentration of each test compound needed to hinder multiplication of parasites by 50% (IC50) against P. falciparum strains were obtained through concentration response assay performed in 96-well sterile tissue culture plates. Synchronized parasite cultures were applied to different doses of each compound. Dilutions were performed in gentamycin-free culture medium, and incubated at 37 °C having gaseous mixture (5% CO2, 5% O2 and 90% N2) supply for 24 h. The results were expressed as IC50 values computed from HN-NonLin Regression analysis, as well as mean percentage inhibition ± standard error examined by thick smear Giemsa stained slides. %ParasiteInhibition29,30=100-TotalnumberofSchizontsintestwells/TotalnumberofSchizontsincontrolwell∗100
(§4) Parasite at ring stage was used for compound concentration response assay with parasitaemia of 1% at 5% haematocrit. […] The IC50 and IC90 values of all compounds were determined and the resistance index between the two sensitive and resistant strains was calculated (Table 2). […] The percentage inhibition in schizont maturation was also calculated after incubation of ring stage P. falciparum till 24 h at the same range of drug concentrations (Table 3).

[2] = MTT cytotoxicity / cell viability assay; conditions: human, HeLa cells
Protocol: (§5) Cytotoxicity of the compounds on mammalian cells were accomplished employing HeLa cell line (NCCS, Pune) cultured in DMEM supplemented with 10% FBS by the MTT (3-(4,5-dimethylthiazol-2-yl)-2,5-diphenyltetrazolium bromide) microenzymatic method with certain modifications [32]. Briefly, cells (10^4 cells/200 μL/well) were seeded into 96-well flat-bottom sterile tissue culture plates in complete medium. After 24 h of seeding, the test compounds at different dilutions were added and kept for another 24 h in a humidified chamber with 5% CO2 at 37 °C. Twenty microlitres of MTT (5.00 mg/mL in 1XPBS) stock solution were pipetted into each well, mixed and incubated for at least 3–4 h. After incubation, the plates were centrifuged at 1500 rpm for 5 min. The supernatant was disposed cautiously and 100 μL of DMSO were added to each well to lyse the cell and dissolve the insoluble purple formazan product into a coloured solution. Absorbance was taken at 570 nm to determine formazan formation as a measurement of cell viability. Experiments were performed in triplicate.

[3] = system: P. falciparum chloroquine sensitive strain (MRC-2); assay: microbe, parasite or virus in culture; conditions: for % Schizont maturation inhibition ± SD (MRC-2): Conc. = 6.25 μg/mL; for % Schizont maturation inhibition ± SD (MRC-2) / P. falciparum Chloroquine^s Strain (MRC-2) IC50 / P. falciparum Chloroquine^s Strain (MRC-2) IC90: 24 h; for Selective index (SI) P.falciparum chloroquine^s (MRC-2): SI = CC50 (HeLa)/IC50 (MRC-2); for P. falciparum Chloroquine^s Strain (MRC-2) IC50 / P. falciparum Chloroquine^s Strain (MRC-2) IC90: schizont maturation, ring stage
Protocol: as §1, §2, §3, §4

[4] = system: haemozoin (β-haematin) production in P. falciparum cultures; assay: Haemozoin inhibition assay in P. falciparum cultures; type: cell-based, Plasmodium falciparum; conditions: drug near IC50 concentration, 48 h; untreated control 547.61 ± 9.52
Protocol: Briefly, the test cultures were centrifuged for 5–10 min at 1300 rpm to dispose of the culture medium. Infected erythrocyte pellet (mingled of β-haematin and erythrocyte membrane) were exposed to 0.01% saponin lysis for 10 min at 25 °C to lyse erythrocyte to release parasites. […] The haemozoin content was quantified by taking the absorbance at 400 nm and using a standard curve prepared from β-haematin. The amount of haemozoin formed in relation to control was calculated. All assays were performed in triplicate.

[5] = Plasmodium falciparum, artemisinin, unit ng/mL
[6] = schizont maturation, 24 h, ring stage
[7] = Plasmodium falciparum, schizont maturation, 24 h, ring stage

Protocol for HeLa cell line: as §5
Protocol for in vitro: Briefly, fresh erythrocytes were centrifuged for 5 min at 1600 rpm for at least thrice in PBS and then the remaining pellet was re-suspended in PBS at 2% hematocrit. One hundred microlitres of this suspended pellet was added to 96-well sterile culture plate having test compounds at different desired concentrations. PBS alone (for baseline values) and 0.4% Triton X-100 in PBS (for 100% haemolysis) were employed as controls. After keeping at 37 °C for 3 h, the test samples were centrifuged and the supernatant was used for determination of the haemolytic activity quantified in terms of haemoglobin release as monitored spectrophotometrically by taking absorbance at 415 nm [33]. The experiment was done in triplicate and the mean ± SD was calculated [33, 34]. %Haemolysis=[Absorbanceofsample415nm-Absorbanceofblanksample415nm/Absorbanceofpositivecontrol415nm]∗100

Row | SMILES | Selective index (SI) P.falciparum chloroquine^R (RKL-9) [1] | % Schizont maturation inhibition ± SD (RKL-9) ([1]; Conc. = 6.25 μg/mL, 24 h) | Resistance Index (RI) IC50 (RKL-9)/IC50 (MRC-2) [1] | P. falciparum Chloroquine^R Strain (RKL-9) IC50 [1, 6] | P. falciparum Chloroquine^R Strain (RKL-9) IC90 [1, 6] | % Schizont maturation inhibition ± SD (MRC-2) [3] | Selective index (SI) P.falciparum chloroquine^s (MRC-2) [3] | P. falciparum Chloroquine^s Strain (MRC-2) IC50 [3] | P. falciparum Chloroquine^s Strain (MRC-2) IC90 [3] | HeLa Cell CC50 (HeLa cell line) | further results
1 | C[C@@H]1CC[C@H]2[C@@H](C)C(=O)O[C@@H]3O[C@@]4(C)CC[C@@H]1[C@]32OO4 [ART, artemisinin, reference compound] | 327.4 |  |  |  |  |  |  |  |  |  | IC50 [1, 5]: 0.15 ng/mL (≈ 0.531 nM); IC90 [1, 5]: 0.15 ng/mL (≈ 0.531 nM); inhibition at 0.00625 µg/mL ([1]; Plasmodium falciparum, artemisinin, Conc. = 6.25 ng/mL, 24 h, read-out: % Schizont maturation inhibition ± SD (RKL-9)): 87.9 ± 2.12%; CC50 at 24 h [2]: 0.0491 µg/mL (≈ 174 nM); viability at 24 h, 12.5 ng/mL [2]: 58.92 ± 0.06%; hemolysis at 3 h, 12.5 ng/mL (in vitro): 1.94 ± 0.026%
2 | COc1cc(OC)c(C(=O)/C=C/c2ccc(OC)c(OC)c2)c(OC)c1 [Chalcone 1] | 18.96 | 49.66 ± 25.46% | 0.68 | 0.23 µg/mL | 1.42 µg/mL | 82.43 ± 20.51% | 12.82 | 0.34 µg/mL | 5.54 µg/mL | 4.36 µg/mL | 
3 | COc1ccc(C=CC(=O)c2cc(OC)ccc2OC)cc1 [Chalcone 2] | 7.57 | 58.02 ± 21.21% | 1.08 | 0.14 µg/mL | 0.36 µg/mL | 71.76 ± 10.61% | 8.15 | 0.13 µg/mL | 0.51 µg/mL | 1.06 µg/mL | Amount of haemozoin production [4]: 464.28 ± 11.9 ng/mL
4 | COc1ccc(OC)c(C(=O)C=Cc2ccc3c(c2)OCO3)c1 [Chalcone 3] | 26.86 | 63.71 ± 2.83% | 1.71 | 0.29 µg/mL | 1.15 µg/mL | 59.26 ± 4.95% | 45.82 | 0.17 µg/mL | 0.75 µg/mL | 7.79 µg/mL | 
5 | COc1cc(C(=O)C=Cc2ccc(F)cc2)cc(OC)c1OC [Chalcone 4] | 1.65 | 57.69 ± 7.78% | 3.40 | 0.51 µg/mL | 2.26 µg/mL | 47.48 ± 17.68% | 5.60 | 0.15 µg/mL | 0.40 µg/mL | 0.84 µg/mL | 
6 | COc1cc(C(=O)C=Cc2ccc(N(C)C)cc2)cc(OC)c1OC [Chalcone 5] | 36.74 | 40 ± 20.51% | 1.43 | 0.23 µg/mL | 0.92 µg/mL | 58.65 ± 7.78% | 52.81 | 0.16 µg/mL | 1.08 µg/mL | 8.45 µg/mL | 
7 | COc1ccc(/C=C/C(=O)c2cc(OC)c(OC)c(OC)c2)cc1 [Chalcone 6] | 8.74 | 43.85 ± 33.23% | 0.54 | 0.19 µg/mL | 0.98 µg/mL | 51.05 ± 42.42% | 4.74 | 0.35 µg/mL | 5.23 µg/mL | 1.66 µg/mL | Amount of haemozoin production [4]: 457.14 ± 38.09 ng/mL
8 | COc1ccc(/C=C/C(=O)c2cc(OC)c(OC)c(OC)c2)cc1OC [Chalcone 7] | 85.05 | 85.82 ± 6.36% | 1.64 | 0.18 µg/mL | 0.67 µg/mL | 94.24 ± 2.21% | 139.18 | 0.11 µg/mL | 0.46 µg/mL |  | Amount of haemozoin production [4]: 385.71 ± 4.76 ng/mL
9 | COc1cc(C(=O)/C=C/c2ccc3c(c2)OCO3)cc(OC)c1OC [Chalcone 8] | 8.46 | 77.78 ± 1.41% | 0.90 | 0.26 µg/mL | 5.31 µg/mL | 75.17 ± 12.02% | 7.59 | 0.29 µg/mL | 1.01 µg/mL | 2.20 µg/mL | 
10 | O=C(/C=C/c1cc2ccccc2[nH]1)c1ccc(I)cc1 [Chalcone 10] | 9.90 | 49.62 ± 19.79% | 0.95 | 0.19 µg/mL | 0.81 µg/mL | 64.44 ± 9.90% | 9.40 | 0.20 µg/mL | 0.89 µg/mL | 1.88 µg/mL | 
11 | C=C[C@H]1C[N@@]2CC[C@H]1C[C@H]2[C@H](O)c1ccnc2ccc(OC)cc12 [QNN, quinine hydrochloride, reference compound] | 121.24 |  |  |  |  |  |  |  |  |  | IC50 [1, 7]: 250 ng/mL; IC90 [1, 7]: 1590 ng/mL; inhibition at 6.25 µg/mL ([1]; Plasmodium falciparum, Conc. = 6.25 μg/mL, 24 h, read-out: % Schizont maturation inhibition ± SD (RKL-9)): 71.9 ± 16.3%; CC50 at 24 h [2]: 30.3 µg/mL; viability at 24 h, 12.5 µg/mL [2]: 62.62 ± 0.06%; hemolysis at 3 h, 12.5 μg/mL (in vitro): 2.16 ± 0.035%
